Source: patent US20250099455A1, “TREATMENT FOR CONGESTIVE HEART FAILURE” (FibroGen, Inc., priority 2022, published 2025)
Entries after “also recorded” stand apart in the source; their conditions may differ.

Key:
[1] = tested on: congestive heart failure subsequent to myocardial infarction; experiment: Rat CHF subsequent to myocardial infarction, every other day dosing (Example 1); assay type: in vivo
Description: The effect of the compound of Formula I on cardiac function in congestive heart failure (CHF) was studied by inducing CHF subsequent to myocardial infarction (MI). Three groups of rats (n=12) were subjected to MI by 30 minute ligation of the left coronary artery followed by reperfusion. In a sham group, rats underwent a similar surgical procedure except that the left coronary artery was not occluded. Treatment with the compound of Formula I was initiated 2 days after reperfusion. In the MI groups, rats were dosed orally every other day with vehicle, 6 mg/kg or 20 mg/kg compound from day 2 to day 26 post MI. In the sham group, rats were dosed with vehicle on the same schedule. At 28 days post-MI, cardiac function, heart weight, and complete blood count (CBC) were measured. Histomorphometric analysis was performed on cardiac sections to quantify collagen deposition with picrosirius red staining (PSR), remodeling with hematoxylin and eosin staining and blood vessel number with immunohistochemistry for smooth muscle α-actin. • Male Sprague Dawley rats • Ligation of left coronary artery for 30 minutes followed by reperfusion • Post-ligation recovery for 28 days • Cardiac function 28 days after ischemia-reperfusion using a Millar pressure-volume catheter inserted in the left ventricle via the carotid artery • Record pressure-volume loops over several cardiac cycles and derived cardiac function parameters

[2] = tested on: congestive heart failure subsequent to myocardial infarction; experiment: Rat CHF subsequent to myocardial infarction, delayed treatment (Example 2); assay type: in vivo
Description: The effect of delayed treatment with the compound of Formula I on cardiac function in congestive heart failure (CHF) was studied by inducing CHF subsequent to MI. Four groups of rats (n=11-12) were subjected to MI by 30 minute ligation of the left coronary artery followed by reperfusion. In a sham group, rats underwent a similar surgical procedure except that the left coronary artery was not occluded. Cardiac function was measured in one group at 28 days post-MI (Baseline). In the remaining MI groups, dosing with vehicle or test article was initiated on Day 28. Rats were orally dosed every other day with vehicle, 6 mg/kg or 20 mg/kg compound from day 28 until day 54 post-MI. At 56 days post-MI, cardiac function, heart weight and complete blood count (CBC) were measured. • Male Sprague Dawley rats • Ligation of left coronary artery for 30 minutes followed by reperfusion • Post-ligation recovery for 28 days • Cardiac function 28 days after ischemia-reperfusion using a Millar pressure-volume catheter inserted in the left ventricle via the carotid artery • Record pressure-volume loops over several cardiac cycles and derived cardiac function parameters

global ischemia = experiment: Acute cardioprotection: left ventricular function and coronary flow after global ischemia
[3] = Preliminary PK profile in dogs; assay type: in vivo, dog
Description: The preliminary PK profile of the compound of Formula I in dogs was studied and the results are shown in FIG. 19 and summarized in the following Table.

PHD1 = PHD1 (Homo sapiens (Human), UniProt Q96KS0); experiment: HIF-PH assay (14CO2 capture), PHD1; assay type: biochemical
Sequence of PHD1 (Q96KS0 whole entry, species assumed): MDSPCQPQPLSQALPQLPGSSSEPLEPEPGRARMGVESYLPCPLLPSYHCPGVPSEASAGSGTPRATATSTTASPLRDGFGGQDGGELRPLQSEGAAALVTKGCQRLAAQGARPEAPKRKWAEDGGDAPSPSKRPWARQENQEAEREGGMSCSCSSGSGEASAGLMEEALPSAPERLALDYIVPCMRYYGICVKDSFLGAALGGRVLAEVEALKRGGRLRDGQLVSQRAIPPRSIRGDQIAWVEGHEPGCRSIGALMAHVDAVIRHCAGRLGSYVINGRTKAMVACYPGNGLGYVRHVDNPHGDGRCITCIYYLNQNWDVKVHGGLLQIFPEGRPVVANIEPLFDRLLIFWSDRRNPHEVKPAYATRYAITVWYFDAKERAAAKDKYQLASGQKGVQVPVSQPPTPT
Description: The selectivity profile for the compound of Formula I can be determined using, for example, any assay familiar and commonly accessible to those skilled in the art, e.g., the following HIF-PH assay.
Ketoglutaric acid α-[1-^14C]-sodium salt, alpha-ketoglutaric acid sodium salt, and HPLC purified peptide may be obtained from commercial sources, e.g., Perkin-Elmer (Wellesley MA), Sigma-Aldrich, and SynPep Corp. (Dublin CA), respectively. Peptides for use in the assay may be fragments of HIFα as described above or as disclosed in International Publication WO 2005/118836, incorporated by reference herein. HIF-PH, e.g., PHD1 (EGLN2) or PHD2 (EGLN1), can be expressed in, e.g., insect Hi5 cells, and partially purified, e.g., through a SP ion exchange chromatography column. Enzyme activity is determined by capturing ^14CO2 using an assay described by Kivirikko and Myllyla (1982, Methods Enzymol. 82:245-304). Assay reactions contain 50 mM HEPES (pH 7.4), 100 μM α-ketoglutaric acid sodium salt, 0.30 μCi/mL ketoglutaric acid α-[1-^14C]-sodium salt, 40 μM FeSO4, 1 mM ascorbate, 1541.8 units/mL Catalase, with or without 50 µM peptide substrate and various concentrations of compound of the invention. Reactions are initiated by addition of HIF-PH enzyme. IC50 (compound concentration for 50% inhibition of enzyme activity) of the compounds for each enzyme can be determined.
The peptide-dependent percent turnover is calculated by subtracting percent turnover in the absence of peptide from percent turnover in the presence of substrate peptide. Percent inhibition and IC50 are calculated using peptide-dependent percent turnover at given inhibitor concentrations. Calculation of IC50 values for each inhibitor is conducted using GraFit software (Erithacus Software Ltd., Surrey UK). IC50 of test compound for PHD1 and for PHD2 and/or PHD3 can be readily determined using the above method, and used to assess the selectivity of the compound for inhibition of PHD1.

[4] = 6 or 20 mg/kg oral QOD day 2-26 post MI, 28 days post-MI
[5] = 6 or 20 mg/kg oral QOD day 2-26 post MI, 28 days post-MI, vs vehicle
[6] = histomorphometry of left ventricle, QOD dosing, 28 days
[7] = delayed administration, 6, 20 mg/kg QOD, 4 weeks
[8] = delayed: 6 or 20 mg/kg oral QOD day 28-54 post-MI, 56 days post-MI
[9] = delayed: 6 or 20 mg/kg oral QOD day 28-54 post-MI, 56 days post-MI, vs vehicle
[10] = dog, in vivo, dogs, preliminary

With CC(C)(CC(=O)O)NC(=O)c1nc(C#N)c2cc(Oc3ccccc3)ccc2c1O [Formula I, 3-[(1-cyano-4-hydroxy-7-phenoxy-isoquinoline-3-carbonyl)-amino]-3-methyl-butyric acid] the collagen deposition ([1]; 6, 20 mg/kg QOD, 4 weeks) was “reduced; also recorded: reduction in cardiac hypertrophy”, the ESPVR slope [1, 4] was “normalized” and the circulating hemoglobin level [1, 4] was “did not produce a concomitant significant increase; also recorded: without any concomitant rise”. For the same compound, the “other CBC parameters” value [1, 4] was “did not produce a concomitant significant increase in circulating hemoglobin level or have a significant effect”, the arterial elastance [1, 5] was “significantly improved” and the cardiac hypertrophy [1, 5] was “significantly improved; also recorded: significant improvement; also recorded: reduced; also recorded: reduction in cardiac hypertrophy”. For the same compound, the cardiac output [1, 5] was “significantly improved; also recorded: significant improvement”, the ejection fraction [1, 5] was “significantly improved; also recorded: significant improvement; also recorded: improved at both doses)” and the end-diastolic pressure [1, 5] was “significantly improved”. For the same compound, the end-systolic pressure [1, 5] was “significantly improved”, the end-systolic volume [1, 5] was “significantly improved; also recorded: significant improvement” and the relaxation time [1, 5] was “significantly improved; also recorded: significant improvement”. For the same compound, the stroke volume [1, 5] was “significantly improved; also recorded: significant improvement”, the stroke work [1, 5] was “significantly improved; also recorded: significant improvement” and the cardiac contractility ([1]; every day or every other day for 28 days) was “significant improvement”. For the same compound, the “hypervascularization in the peri-infarct area” value [1, 6] was “significant reduction”, the “left ventricular wall thinning / wall thickness” value [1, 6] was “prevention of ventricular wall thinning; also recorded: preserved” and the diastolic function [2, 7] was “Some improvement in diastolic”. For the same compound, the systolic function [2, 7] was “improved systolic function (ejection”, the cardiac hypertrophy [2, 8] was “improved; also recorded: Some improvement in diastolic” and the dPdtmax [2, 8] was “improved”. For the same compound, the end-diastolic volume [2, 8] was “improved”, the hematocrit [2, 8] was “no significant effect; also recorded: no erythropoietic effect” and the hemoglobin level [2, 8] was “no significant effect; also recorded: no erythropoietic effect”. For the same compound, the relaxation time [2, 8] was “improved; also recorded: improvement”, the ejection fraction [2, 9] was “significantly improved; also recorded: improvement; also recorded: fraction improved at both doses)” and the end-systolic volume [2, 9] was “significantly improved; also recorded: improvement”. For the same compound, the cardiac contractility ([2]; started 28 days after MI, every other day for 28 days) was “improvement”, the coronary flow (global ischemia) was “improved” and the left ventricular function (global ischemia) was “improved”. For the same compound, the “left ventricular function (LVDP)” value (global ischemia) was “improved”, the “left ventricular function (LVEP)” value (global ischemia) was “improved” and the “Sex difference in PK” value ([3]; dog) was “No”. The Dose proportional ([3]; dog, 10-60 mg/kg) was “Yes”, the “CL” value ([3]; dog, PK summary table) was 4.2 ± 0.683 mL/min/kg and the half-life ([3]; dog, in vivo, PK summary table) was 11 ± 2 h. It also gave a bioavailability ([3]; dog, in vivo, po, dogs, read-out: Oral bioavailability (Oral % F)) of roughly 25%, an AUC(0-inf) [3, 10] of 10200 ± 3300 ng·h/mL and an AUC(0-t) [3, 10] of 10200 ± 3300 ng·h/mL. It also gave a Cmax [3, 10] of 2600 ± 1900 ng/mL, a Tmax [3, 10] of 0.8 ± 0.4 h and a clearance [3, 10] of 4.2 mL/min/kg. For the same compound, the half-life [3, 10] was 11.3 ± 1.8 h, the Vd ([3]; dog, in vivo, dogs, preliminary, read-out: Vss) was 0.249 ± 0.073 L/kg and the Dose proportional ([3]; dog, up to 150 mg/kg) was “less than dose”. The “Accumulation (after multiple dosing)” value ([3]; dog, no data, expected based on T1/2) was “some acc based”, the “Vss relative to plasma volume” value ([3]; dogs) was “higher than plasma volume” and the “Clearance in dogs relative to CL in rats” value ([3]; dogs vs rats) was 5-10 ×. The Tmax ([3]; in vivo, oral, dog, PK summary table) was roughly 1 h, the IC50 (PHD1; Table 1) was 0.91 µM and the IC50 (PHD1; additional experiment, Table 1A) was 0.7 µM. For the same compound, the PHD2/PHD1 (PHD1; ratio IC50 PHD2/IC50 PHD1, additional experiment, Table 1A) was 24.
